{"source": "patent EP0179751B1", "about": "“Ionophore polyether, process for its preparation and its use” (SANOFI, priority 1984, dated 1986)", "key": {"Bacillus cereus": {"tested_on": "Bacillus cereus", "test": "minimum inhibitory concentration, dilution method", "assay_type": "cell-based", "text": "Par exemple, on a décrit dans les brevets de l'Allemagne de l'Est Nos. 208 172 et 237 725 des complexes d'antibiotiques produits à partir de souches de Streptomyces hygroscopicus. Ces composés polyéthers sont caractérisés par une activité antibiotique importante et comparativement plus importante que celle présentée par la monensine ou la salinomycine. Par contre, l'abiérixine est douée d'activité antibiotique très faible par rapport à celle présentée par la plupart des ionophores polyéthers connus comme la monensine, la nigéricine ou la grisorixine. Par exemple, la concentration minimale inhibitrice de l'abiérixine vis-à-vis de Bacillus cereus déterminée selon la méthode de dilution est de 25 µg/ml mais de 0,05 µg/ml, 0,05 ug/ml et 3,12 gg/ml dans le cas respectivement de la monensine, de la nigéricine et de la grisorixine."}, "Eimeria tenella": {"tested_on": "Eimeria tenella", "test": "anticoccidial test in cockerels inoculated with Eimeria tenella", "assay_type": "in vivo", "conditions": "for Lésion individuelle Moyenne: Reid lesion score; for IC de J - 2 à J + 8: feed conversion index; for EO x 10^3 Total: oocyst excretion J+4 to J+8; for EO %: oocyst excretion relative to CTNT; for P = poids moyen à J + 8: start weight 127 g", "text": "Des tests ont été effectués de manière à montrer l'efficacité de l'abiérixine comme agent anticoccidien dans lesquels on a relevé les résultats zootechniques (poids, indice de consommation) et les symptômes […] de coccidiose (morbidité, mortalité, aspect des matières fécales, excrétion ookystale, lésions).\nOn a utilisé à cet effet le protocole expérimental suivant : • Animaux • - Coquelets de souche génétique Warren Sex Sal Link • - Age le jour de l'inoculation (J O) : 17 jours • - Age le jour de l'abattage (J +8) : 25 jours\nInoculum Dose : 300 000 oocystes sporulés d'Eimeria tenella\nAlimentation • - Aliment utilisé : aliment type poulet de chair, 1er âge • - Anticoccidien utilisé : l'abiérixine à la dose de 40 ou 50 ppm/jour depuis J-2 jusqu'à J +8\nLots • - Nombre d'animaux par lot : 4 • - Répartition des lots : • NCNT : animaux non contaminés, non traités • CTNT : animaux contaminés, non traités • CTT, : animaux contaminés, traités avec 40 ppm d'abiérixine • CTT2 : animaux contaminés, traités avec 50 ppm d'abiérixine\nLes critères • - Les gains de poids (GP) de J-2 à J +8 • - L'excrétion ookystale (EO) journalière de J+4 à J+8 • - La morbidité (M) notée de 0 à 4 • - L'aspect des fécès noté de 0 : fécès normales à 4 : fécès diarrhéiques ou hémorragiques (MF) • - La mortalité (M %) exprimée en pourcentage • - Les lésions (L) notées selon la notation de RFID (W. Malcolm REID, \"A diagnostic chart of nine species of fowl coccidia - Georgia Agricultural Experiment Stations - Dec. 1964, Technical Bulletin N. S. 39) • - Les indices de consommation (IC)"}, "acute toxicity, oral": {"test": "acute toxicity, oral", "conditions": "mouse, in vivo, souris, voie orale, read-out: toxicité aiguë DL50", "experimental": "On a trouvé, par exemple, que la toxicité aiguë DL50 de l'abiérixine chez la souris par voie orale est comprise entre 600 et 1000 mg/kg alors que, dans les mêmes conditions, la toxicité d'autres polyéthers polycycliques se révèle beaucoup plus importante, de l'ordre de 50 mg/kg (DL50 lonomycine : 50 mg/kg, complexe de monensine- : 43,8 mg/kg, salinomycine- : 50 mg/kg)."}, "flore ruménale": {"tested_on": "flore ruménale", "test": "in vitro rumen flora fermentation, nitrogen use", "conditions": "in the absence of protein nitrogen"}, "[1]": {"tested_on": "Streptomyces C.N.C.M.-I-321", "test": "sensitivity of producer strain to nigericin (MIC)", "assay_type": "cell-based"}, "[2]": {"tested_on": "Streptomyces hygroscopicus NRRL B 1865", "test": "sensitivity of producer strain to nigericin (MIC)", "assay_type": "cell-based"}, "[3]": {"tested_on": "Streptomyces hygroscopicus NRRL 3602", "test": "sensitivity of producer strain to nigericin (MIC)", "assay_type": "cell-based"}, "[4]": {"conditions": "cited from earlier work"}, "solubility": {"test": "solubility", "assay_type": "physicochemical", "experimental": "Aspect: solide P.F. : 83-85° C Solubilité : se dissout dans les solvants organiques usuels, tels que les alcools inférieurs par exemple méthanol, éthanol, les esters inférieurs, par exemple l'acétate d'éthyle ou encore dans l'éther éthylique et le chloroforme. Dans l'eau, la solubilité est de 44 % environ. αj25 : +45° (c = 0,03 n, méthanol)\nAspect : mousse blanche solide. P.F. 120-123° C Solubilité : se dissout dans les solvants organiques usuels, tels que les alcools inférieurs par exemple méthanol, éthanol, les esters inférieurs par exemple l'acétate d'éthyle ou encore dans l'éther éthylique et le chloroforme. Par contre, il est insoluble dans l'eau."}, "[5]": {"conditions": "mouse, in vivo; cited from earlier work"}, "[6]": {"conditions": "CTT1: 40 ppm, J + 6, score 0 to 4"}, "[7]": {"conditions": "CTT1: 40 ppm, J + 7, score 0 to 4"}, "[8]": {"conditions": "CTT2: 50 ppm, J + 6, score 0 to 4"}, "[9]": {"conditions": "CTT2: 50 ppm, J + 7, score 0 to 4"}, "[10]": {"conditions": "souris, voie orale, comparison polyethers"}}, "note": "Like-named read-outs stand apart in the source and are kept apart here.", "data": [{"molecule": "COC1CC(CC(O)CCC(C)C=C(C)C(=O)O)OC2(OC(C)(C3CCC(C)(C4OC(C5OC(O)(CO)C(C)CC5C)CC4C)O3)CC2C)C1C", "note": "(stereo not shown) [abiérixine]", "values": [{"measurement": "MIC", "setting": "Bacillus cereus; read-out: concentration minimale inhibitrice", "result": 25, "unit": "µg/mL"}, {"measurement": "croissance pondérale", "setting": "Eimeria tenella; 40 ppm/jour for 10 days, cockerels infected with E. tenella", "result": "augmente la croissance pondérale"}, {"measurement": "M % (mortalité)", "setting": "Eimeria tenella; CTT1: 40 ppm", "result": 0, "unit": "%"}, {"measurement": "GP = gain de poids moyen de J - 2 à J + 8", "setting": "Eimeria tenella; CTT1: 40 ppm in feed J-2 to J+8", "result": 93, "unit": "g"}, {"measurement": "MF (aspect des fécès)", "setting": "Eimeria tenella; CTT1: 40 ppm, J + 5, score 0 normal to 4 diarrhoeic or haemorrhagic", "result": 4}, {"measurement": "M (morbidité)", "setting": "Eimeria tenella; CTT1: 40 ppm, J + 5, score 0 to 4", "result": 3}, {"measurement": "M (morbidité)", "setting": "Eimeria tenella; [6]", "result": 0}, {"measurement": "MF (aspect des fécès)", "setting": "Eimeria tenella; [6]", "result": 1}, {"measurement": "M (morbidité)", "setting": "Eimeria tenella; [7]", "result": 0}, {"measurement": "MF (aspect des fécès)", "setting": "Eimeria tenella; [7]", "result": 0}, {"measurement": "Lésion individuelle Moyenne", "setting": "Eimeria tenella; CTT1: 40 ppm", "result": "2,5"}, {"measurement": "IC de J - 2 à J + 8", "setting": "Eimeria tenella; CTT1: 40 ppm", "result": "2,8"}, {"measurement": "EO x 10^3 Total", "setting": "Eimeria tenella; CTT1: 40 ppm", "result": "4165 x 10^3"}, {"measurement": "EO %", "setting": "Eimeria tenella; CTT1: 40 ppm", "result": "74,0%"}, {"measurement": "P = poids moyen à J + 8", "setting": "Eimeria tenella; CTT1: infected cockerels, 40 ppm in feed J-2 to J+8", "result": 219, "unit": "g"}, {"measurement": "M % (mortalité)", "setting": "Eimeria tenella; CTT2: 50 ppm", "result": 0, "unit": "%"}, {"measurement": "GP = gain de poids moyen de J - 2 à J + 8", "setting": "Eimeria tenella; CTT2: 50 ppm in feed J-2 to J+8", "result": 63, "unit": "g"}, {"measurement": "MF (aspect des fécès)", "setting": "Eimeria tenella; CTT2: 50 ppm, J + 5, score 0 normal to 4 diarrhoeic or haemorrhagic", "result": 3}, {"measurement": "M (morbidité)", "setting": "Eimeria tenella; CTT2: 50 ppm, J + 5, score 0 to 4", "result": 3}, {"measurement": "M (morbidité)", "setting": "Eimeria tenella; [8]", "result": 0}, {"measurement": "MF (aspect des fécès)", "setting": "Eimeria tenella; [8]", "result": 1}, {"measurement": "M (morbidité)", "setting": "Eimeria tenella; [9]", "result": 0}, {"measurement": "MF (aspect des fécès)", "setting": "Eimeria tenella; [9]", "result": 0}, {"measurement": "Lésion individuelle Moyenne", "setting": "Eimeria tenella; CTT2: 50 ppm", "result": "3,5"}, {"measurement": "IC de J - 2 à J + 8", "setting": "Eimeria tenella; CTT2: 50 ppm", "result": "3,35"}, {"measurement": "EO x 10^3 Total", "setting": "Eimeria tenella; CTT2: 50 ppm", "result": "2324 x 10^3"}, {"measurement": "EO %", "setting": "Eimeria tenella; CTT2: 50 ppm", "result": "41,3%"}, {"measurement": "P = poids moyen à J + 8", "setting": "Eimeria tenella; CTT2: infected cockerels, 50 ppm in feed J-2 to J+8", "result": 190, "unit": "g"}, {"measurement": "LD50", "setting": "acute toxicity, oral", "result": "600 to 1000", "unit": "mg/kg"}, {"measurement": "diminution de l'efficacité de la synthèse microbienne", "setting": "flore ruménale", "result": 10, "unit": "%"}]}, {"molecule": "nigéricine", "values": [{"measurement": "concentration minimale inhibitrice", "setting": "Bacillus cereus", "result": "0,05 ug/ml"}, {"measurement": "Sensibilité à la nigéricine (C.M.I)", "setting": "[1]", "result": "> 500", "unit": "µg/mL"}, {"measurement": "Sensibilité à la nigéricine (C.M.I)", "setting": "[2]", "result": "> 500", "unit": "µg/mL"}, {"measurement": "Sensibilité à la nigéricine (C.M.I)", "setting": "[3]", "result": "> 500", "unit": "µg/mL"}, {"measurement": "diminution de l'efficacité de la synthèse microbienne", "setting": "flore ruménale", "result": "> 30", "unit": "%"}]}, {"molecule": "complexe de monensine", "values": [{"measurement": "DL50", "setting": "[4]; [10]", "result": "43,8 mg/kg"}]}, {"molecule": "lonomycine", "values": [{"measurement": "DL50", "setting": "[4]; [10]", "result": 50, "unit": "mg/kg"}]}, {"molecule": "COC1CC(CC(O)CCC(C)C=C(C)C(=O)O)OC2(OC(C)(C3CCC(C)(C4OC(C5OC(O)(CO)C(C)CC5C)CC4C)O3)CC2C)C1C", "note": "(stereo not shown) [abiérixine monohydratée]", "values": [{"measurement": "Solubilité dans les solvants organiques usuels", "setting": "solubility; méthanol, éthanol, acétate d'éthyle, éther éthylique, chloroforme", "result": "se dissout"}, {"measurement": "solubility", "setting": "solubility; water, read-out: Solubilité dans l'eau", "result": "~440", "unit": "mg/mL"}]}, {"molecule": "CC[C@@H](C(=O)[C@@H](C)[C@@H](O)[C@H](C)[C@@H]1O[C@@H]([C@@H](CC)C(=O)O)CC[C@@H]1C)[C@H]1O[C@]2(C=C[C@@H](O)[C@]3(CC[C@@](C)([C@H]4CC[C@](O)(CC)[C@H](C)O4)O3)O2)[C@H](C)C[C@@H]1C", "note": "[salinomycine]", "values": [{"measurement": "DL50", "setting": "[4]; mouse, in vivo, po", "result": 50, "unit": "mg/kg"}, {"measurement": "DL50", "setting": "[5]", "result": 18, "unit": "mg/kg"}]}, {"molecule": "COC1CC(CC(O)CCC(C)C=C(C)C(=O)O)OC2(OC(C)(C3CCC(C)(C4OC(C5OC(O)(CO)C(C)CC5C)CC4C)O3)CC2C)C1C", "note": "(stereo not shown) [sel de sodium de l'abiérixine]", "values": [{"measurement": "Solubilité dans l'eau", "setting": "solubility; water, in words", "result": "insoluble"}]}, {"molecule": "CO[C@@H]1C[C@@H](C[C@H]2CC[C@H](C)C(C(C)C(=O)O)O2)O[C@]2(OC(C)(C3CCC(C)(C4O[C@@H]([C@H]5O[C@](C)(O)[C@H](C)C[C@@H]5C)C[C@@H]4C)O3)CC2C)[C@@H]1C", "note": "(stereo partly shown) [grisorixine]", "values": [{"measurement": "concentration minimale inhibitrice", "setting": "Bacillus cereus", "result": "3,12 gg/ml"}]}]}
